Consider 50 compounds from patent US7179825B2, “Retinoic acid mimetic anilides” (Janssen Pharmaceutica N.V., priority 1997, dated 2007).

Some results are limits rather than exact numbers.

The subject of one assay is Ovariectomized rats. The assay can be described thus: Vaginal keratinization test on ovariectomized rats (Example C.2). The assay is classed as in vivo. The following applies: estradiol undecylate induced keratinization, per os once daily on days 1-3, active dose = 50% of rats show complete suppression. The text has this: (§1) The property to delay the metabolism of retinoic acid can be evidenced in various in vitro and in vivo experiments. A particular in vitro procedure is described in example C.1 and tests the inhibitory activity of the compounds of formula (I) on the metabolism of retinoic acid in human breast cancer cells. The compounds of the present invention were also effective in suppressing induced vaginal keratinization effects in ovariectomized rats as is described in example C.2.
“Vaginal Keratinization Test on Ovariectomized Rats”
Ovariectomized rats were injected subcutaneously with a sesame oil solution containing 100 μg of estradiol undecylate in a volume of 0.1 ml per 100 g body weight and control animals were injected with sesame oil. On day one, two and three, test animals were treated once daily with a per os dose of the test compound and control animals with the drug vehicle (PEG 200). One day after the last treatment, the animals were sacrificed and their vaginas were processed for histological evaluation according to the method described in J. Pharmacol. Exp. Ther. 261(2), 773–779 (1992). A dose at which 50% of the tested rats show complete suppression of the estradiol undecylate induced keratinization effects is defined as an active dose. Table 23 lists the lowest active dose (LAD in mg/kg) of the compounds of formula (I) which were tested.
With `COc1cc(CC(=O)Nc2ccc(C(C(C)N(C)C)n3ccnc3)cc2)cc(OC)c1OC` (single isomer, unassigned) [Compound 428], the “LAD (lowest active dose)” value is recorded as over 2.50 mg/kg. The same measure, in the same setting: for `COc1ccc(CCC(=O)Nc2ccc(C(C(C)N(C)C)n3ccnc3)cc2)cc1OC` (single isomer, unassigned) [Compound 429] the value was over 2.50 mg/kg; for `COc1ccc(CCCC(=O)Nc2ccc(C(C(C)N(C)C)n3ccnc3)cc2)cc1OC.O=C(O)C(=O)O` (single isomer, unassigned) [Compound 431], over 2.50 mg/kg; for `COc1ccc(CC(=O)N(C)c2ccc(C(C(C)N(C)C)n3cncn3)cc2)cc1OC` (single isomer, unassigned) [Compound 437], over 2.50 mg/kg.

On to `COc1ccc(CC(=O)N(C)c2ccc(C(C(C)N(C)C)n3cncn3)cc2)cc1OC` (single isomer, unassigned) [Compound 438], for which the “LAD (lowest active dose)” value is given as over 2.50 mg/kg.

On to `COc1ccc(CC(=O)N(C)c2ccc(C(C(C)N(C)C)n3ccnc3)cc2)cc1OC` (single isomer, unassigned) [Compound 439], for which the “LAD (lowest active dose)” value is listed as over 2.50 mg/kg. The same measure, in the same setting: for `CCCCCC(C)C(c1ccc(NC(=O)/C(C)=C/c2ccccc2)cc1)n1ccnc1` (single isomer, unassigned) [Compound 487] the value was over 5.00 mg/kg.

As to `CCCCCC(CC)C(c1ccc(NC(=O)C(C)=Cc2ccccc2)cc1)n1ccnc1` (single isomer, unassigned) [Compound 494], the “LAD (lowest active dose)” value was over 2.50 mg/kg. Same read-out and setting: with `CC(=O)Nc1ccc(C(C(C)N(C)C)n2ccnc2)cc1.O` (single isomer, unassigned) [Compound 551] the figure was over 2.50 mg/kg; with `CC(=O)Nc1ccc(C(C(C)N(C)C)n2ccnc2)cc1` (single isomer, unassigned) [Compound 552], over 2.50 mg/kg.

Regarding `CCN(CC)C(C)C(c1ccc(NC(C)=O)cc1)n1ccnc1` (single isomer, unassigned) [Compound 554], the “LAD (lowest active dose)” value stood at 2.50 mg/kg.

Turning to `CCN(CC)C(C)C(c1ccc(NC(C)=O)cc1)n1ccnc1` (single isomer, unassigned) [Compound 555], the “LAD (lowest active dose)” value was over 2.50 mg/kg.

`CCC(C(c1ccc(NC(C)=O)cc1)n1ccnc1)N(C)C` (single isomer, unassigned) [Compound 557]: the “LAD (lowest active dose)” value is listed as over 5.00 mg/kg.

With `CC(=O)Nc1ccc(C(C(C)N(C)C)n2cncn2)cc1` (single isomer, unassigned) [Compound 627], the “LAD (lowest active dose)” value was over 2.50 mg/kg.

As for `CC(C(c1ccc(NC(=O)Cc2ccc(Cl)cc2)cc1)n1cncn1)N(C)C` (single isomer, unassigned) [Compound 628], the “LAD (lowest active dose)” value is reported as over 2.50 mg/kg. The same measure, in the same setting: with `COc1ccc(CCC(=O)Nc2ccc(C(C(C)N(C)C)n3cncn3)cc2)cc1OC` (single isomer, unassigned) [Compound 629] the figure was over 2.50 mg/kg.

In the case of `COc1cc(CC(=O)Nc2ccc(C(C(C)N(C)C)n3cncn3)cc2)cc(OC)c1OC` (single isomer, unassigned) [Compound 630], the “LAD (lowest active dose)” value is over 2.50 mg/kg. On the same count and under the same terms, with `C/C(=C\c1ccccc1)C(=O)Nc1ccc(C(C(C)N(C)C)n2cncn2)cc1` (single isomer, unassigned) [Compound 632] the figure was over 2.50 mg/kg; with `CCN(CC)C(C)C(c1ccc(NC(C)=O)cc1)n1cncn1` (single isomer, unassigned) [Compound 647], over 5.00 mg/kg. Still for that read-out and setting: with `CC(C(c1ccc(NC(=S)Nc2nc3ccccc3s2)cc1)n1ccnc1)N(C)C` (single isomer, unassigned) [Compound 704] the figure was over 5.00 mg/kg; with `COc1ccc(NC(=O)Nc2ccc(C(C(C)N(C)C)n3cncn3)cc2)cc1OC` (single isomer, unassigned) [Compound 717], over 2.50 mg/kg; with `COc1ccc(NC(=O)Nc2ccc(C(C(C)N(C)C)n3cncn3)cc2)cc1OC` (single isomer, unassigned) [Compound 720], over 2.50 mg/kg. Same read-out and setting: with `CC(C(c1ccc(NC(=O)Cc2ccc(Cl)cc2)cc1)n1cncn1)N(C)C` (single isomer, unassigned) [Compound 784] the figure was over 5.00 mg/kg; with `CC(C(c1ccc(NC(=O)Cc2ccc(Cl)cc2)cc1)n1cncn1)N(C)C` (single isomer, unassigned) [Compound 785], 5.00 mg/kg. For the compound `CCC(CC)C(c1ccc(NC(=O)c2ccccc2)cc1)n1cncn1` (centres unmarked) [Compound 3], the “LAD (lowest active dose)” value is over 2.50 mg/kg. Same read-out and setting: with `CCC(CC)C(c1ccc(NC(=O)CN(C)C)cc1)n1ccnc1` (centres unmarked) [Compound 55] the figure was over 2.50 mg/kg. With `CCOc1ccc(CCC(=O)Nc2ccc(C(C(C)N(C)C)n3ccnc3)cc2)cc1` (centres unmarked) [Compound 348], the “LAD (lowest active dose)” value is reported as over 2.50 mg/kg. The same measure, in the same setting: for `COc1ccc(CC(=O)Nc2ccc(C(CN(C)C)n3ccnc3)cc2)cc1OC` (centres unmarked) [Compound 380] the value was over 2.50 mg/kg. On the same count and under the same terms, for `CCOC(=O)CC(c1ccc(NC(=O)Cc2ccc(OC)c(OC)c2)cc1)n1ccnc1` (centres unmarked) [Compound 395] the value was over 5.00 mg/kg; for `COc1ccc(CC(=O)Nc2ccc(C(CCO)n3ccnc3)cc2)cc1OC` (centres unmarked) [Compound 403], over 5.00 mg/kg; for `CCOC(=O)CC(c1ccc(NC(C)=O)cc1)n1ccnc1` (centres unmarked) [Compound 560], over 5.00 mg/kg. The same measure, in the same setting: with `CCOC(=O)C(C)C(c1ccc(NC(=O)Cc2ccc(Cl)cc2)cc1)n1cncn1` (centres unmarked) [Compound 624] the figure was over 2.50 mg/kg. In the case of `CCC(C)C(c1ccc(NC(=O)Cc2ccc(Cl)cc2)cc1)n1cncn1` (centres unmarked) [Compound 626], the “LAD (lowest active dose)” value was 2.50 mg/kg. Still for that read-out and setting: with `CCC(c1ccc(NC(C)=O)cc1)(C(C)C)n1ccnc1` (centres unmarked) [Compound 754] the figure was 10.00 mg/kg.

Another assay relates to metabolism of retinoic acid in human breast cancer cells. The assay can be described thus: Inhibition of retinoic acid (RA) metabolism (Example C.1). The class given is cell-based. The following applies: MCF-7 human breast cancer cells, 3H-RA as substrate; concentration needed to reduce the amount of metabolites to 50% of the control.
Description: as §1
Inhibition of Retinoic Acid (RA) Metabolism
MCF-7 human breast cancer cells were grown as stock cultures according to art-known protocols. One day before the experiment, RA is added to the stock cultures to stimulate RA-metabolism. At the start of the experiment, cell suspensions were incubated in a tissue culture medium containing ^3H-RA as the substrate. Different concentrations of the test compound (dissolved in 1% DMSO) were added to the incubation mixtures, and at the end of the incubation, the unmetabolized RA is separated from its polar metabolites. The fraction containing the polar ^3H-labelled metabolites was collected and counted in a scintillation counter. For each experiment, a control and a blank incubation were run in parallel. Table 22 list the IC50 value (defined as the concentration in M needed to reduce the amount of metabolites to 50% of the control).
In general, IC50 refers to the concentration that gives 50% inhibition. `CC(C(c1ccc(NC(=O)Cc2ccc(O)c(Cl)c2)cc1)n1cncn1)N(C)C` (mixture of isomers) [Compound 299]: the IC50 stood at 0.772 nM. With `COc1ccc(CC(=O)Nc2ccc(C(C(C)N(C)CCc3ccccc3)n3ccnc3)cc2)cc1OC` (mixture of isomers) [Compound 415], the IC50 turned out to be 2.64 nM. The same measure, in the same setting: with `Cc1cncn1C(c1ccc(Cl)cc1)c1ccc(NC(=O)C=C(c2ccccc2)c2cccc(Cl)c2)cc1` (mixture of isomers) [Compound 693] the figure was over 100 nM; with `CCC(CC)C(c1ccc(NC(=O)COc2ccccc2OC)cc1)n1cncn1` (racemic) [Compound 12], 0.0365 nM; with `CCC(CC)C(c1ccc(NC(=O)C(O)c2ccc(Cl)cc2)cc1)n1cncn1` (racemic) [Compound 17, (±)-A1-4-chloro-N-[4-[2-ethyl-1-(1H-1,2,4-triazol-1-yl)butyl]phenyl]-α-hydroxybenzeneacetamide], 0.999 nM. `CCC(CC)C(c1ccc(NC(=O)Cc2ccc(OC)nc2)cc1)n1ccnc1` (racemic) [Compound 51]: the IC50 is 0.895 nM.

Take `CCC(CC)C(c1ccc(NC(=O)Cc2ccc(OC)c(O)c2)cc1)n1ccnc1` (racemic) [Compound 108]: the IC50 stood at 0.0234 nM. Still for that read-out and setting: with `CCC(CC)C(c1ccc(NC(=O)Cc2cc(OC)cc(OC)c2)cc1)n1ccnc1` (racemic) [Compound 119] the figure was 0.94 nM; with `CCC(CC)C(c1ccc(NC(=O)Cc2cc(OC)ccc2OCc2ccccc2)cc1)n1ccnc1` (racemic) [Compound 120], 3.88 nM. Same read-out and setting: with `CCC(CC)C(c1ccc(NC(=O)Cc2cc(C)ccc2O)cc1)n1ccnc1` (racemic) [Compound 124] the figure was 0.0397 nM; with `Cc1cnc(C(=O)Nc2ccc(C(C(C)C)n3ccnc3)cc2)cn1` (racemic) [Compound 225], 82.8 nM. Still for that read-out and setting: for `Cc1ccoc1C(=O)Nc1ccc(C(C(C)C)n2ccnc2)cc1` (racemic) [Compound 226] the value was 16.9 nM.

Take `C/C(=C\c1ccccc1)C(=O)Nc1ccc(C(c2ccc3c(c2)C(C)(C)CCC3(C)C)n2ccnc2)cc1` (racemic) [Compound 491]: the IC50 came to 1.84 nM. Still for that read-out and setting: for `O=C(C=C(c1ccccc1)c1cccnc1)Nc1ccc(C(c2ccc(Cl)cc2)n2ccnc2)cc1` (racemic) [Compound 516] the value was over 1000 nM; for `O=C(C=C(c1ccccc1)c1cccnc1)Nc1ccc(C(c2ccc(F)cc2)n2ccnc2)cc1` (racemic) [Compound 517], 36.9 nM. `O=C(/C=C/c1ccccc1)Nc1ccc(C(c2cccc(C(F)(F)F)c2)n2cncn2)cc1` (racemic) [Compound 617]: the IC50 was determined as 151 nM.
